From article PMC9036822 (Journal of medicinal chemistry, 2021)
“Also recorded” adds a separate entry of the source. Read-outs that look alike come from different tables or passages of the source. Each block holds one compound with its values, some of them ahead of it.

Key:
[1] = molecular target: PRMT5:WDR77 hetero-octameric complex (Homo sapiens, UniProt O14744); test: Fluorescence polarization; format: binding; conditions: for inhibition of PRMT5-PBM peptide binding (in words): FP assay
[2] = molecular target: PRMT5 C278A mutant (Homo sapiens, UniProt O14744, C278A); test: FP competition assay with C278A mutant PRMT5
[3] = tested on: symmetric arginine dimethylation levels in MTAP−/− HCT116 cells; test: Western blot of total symmetric arginine dimethylation; format: cell-based; conditions: 25 μM
[4] = molecular target: PRMT5 (Homo sapiens, UniProt O14744); test: Target engagement in cells; format: cell-based; conditions: Expi293 cells, 6 hours, maximum labeling
[5] = molecular target: PRMT5:WDR77 complex (Homo sapiens, UniProt O14744); test: SPR competition assay, full-length pICln titrated on pre-incubated PRMT5:WDR77; format: binding; conditions: PRMT5 pre-incubated with 2 μM compound overnight at 4C
[6] = molecular target: PRMT5-RIOK1 complex (Homo sapiens, UniProt O14744); test: PRMT5-RIOK1 NanoBiT assay in permeabilized cells; format: cell-based
Sequence of PRMT5-RIOK1 complex (O14744 whole entry): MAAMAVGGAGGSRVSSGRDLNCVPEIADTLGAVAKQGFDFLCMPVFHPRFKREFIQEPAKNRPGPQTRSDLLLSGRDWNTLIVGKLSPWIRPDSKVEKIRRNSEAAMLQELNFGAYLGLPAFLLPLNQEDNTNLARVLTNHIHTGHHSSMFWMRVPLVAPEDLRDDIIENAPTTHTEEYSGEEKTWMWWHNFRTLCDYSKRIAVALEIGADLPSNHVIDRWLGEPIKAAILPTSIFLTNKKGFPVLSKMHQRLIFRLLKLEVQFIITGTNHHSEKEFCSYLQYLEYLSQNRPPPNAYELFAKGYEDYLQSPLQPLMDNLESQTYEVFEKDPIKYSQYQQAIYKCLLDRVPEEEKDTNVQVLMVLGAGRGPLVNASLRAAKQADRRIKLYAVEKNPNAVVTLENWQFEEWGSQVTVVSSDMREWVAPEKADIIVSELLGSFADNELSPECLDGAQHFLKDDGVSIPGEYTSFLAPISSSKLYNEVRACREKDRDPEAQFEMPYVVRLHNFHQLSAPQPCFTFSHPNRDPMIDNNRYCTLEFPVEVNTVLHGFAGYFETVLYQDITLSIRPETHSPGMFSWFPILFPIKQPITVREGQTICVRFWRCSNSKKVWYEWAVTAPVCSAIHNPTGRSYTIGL
Sequence of PRMT5-RIOK1 complex (Q9BQA1 whole entry partner): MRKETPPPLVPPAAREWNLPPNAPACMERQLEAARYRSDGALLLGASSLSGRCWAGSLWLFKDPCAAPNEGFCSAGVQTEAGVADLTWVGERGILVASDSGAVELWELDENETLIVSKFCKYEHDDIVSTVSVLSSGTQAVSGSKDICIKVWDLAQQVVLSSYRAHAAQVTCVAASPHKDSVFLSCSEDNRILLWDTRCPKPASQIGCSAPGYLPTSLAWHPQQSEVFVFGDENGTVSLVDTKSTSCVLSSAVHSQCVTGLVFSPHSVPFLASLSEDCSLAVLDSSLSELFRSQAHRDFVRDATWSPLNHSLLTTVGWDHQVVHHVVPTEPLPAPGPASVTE

Sequence of PRMT5:WDR77 hetero-octameric complex (O14744 whole entry): as the sequence (O14744 whole entry) above
Sequence of PRMT5:WDR77 hetero-octameric complex (Q9BQA1 whole entry partner): as the sequence (Q9BQA1 whole entry partner) above
Sequence of PRMT5 C278A mutant (O14744 whole entry C278A): as the sequence (O14744 whole entry) above, with C278A counted along it
Sequence of PRMT5 C278A mutant (Q9BQA1 whole entry partner): as the sequence (Q9BQA1 whole entry partner) above
Sequence of PRMT5:WDR77 complex (O14744 whole entry): as the sequence (O14744 whole entry) above
Sequence of PRMT5:WDR77 complex (Q9BQA1 whole entry partner): as the sequence (Q9BQA1 whole entry partner) above
Sequence of PRMT5 (O14744 whole entry): as the sequence (O14744 whole entry) above
Sequence of PRMT5 (Q9BQA1 whole entry partner): as the sequence (Q9BQA1 whole entry partner) above

IC50 ([1]; read-out: FP IC50 against WT PRMT5, Fig. 3b, WT vs C278A comparison): 2000 nM
IC50 ([2]; read-out: FP IC50 against C278A mutant, Fig. 3b, C278A PRMT5): 1400 nM
Compound: competitor PBM peptide: pICln 13-mer control peptide displacing the fluorescently-labeled PBM probe (TVAGQFEDADVDH; Terminal caps are) [reference compound]

inhibition of PRMT5-PBM peptide binding (in words) [1]: no ability to displace the PBM peptide
Compound: CN(C)S(=O)(=O)N1CCCC(NC(=O)Cn2ncc(Cl)c(Cl)c2=O)C1 (stereo not drawn) [Compound 18, 2-(4,5-Dichloro-6-oxopyridazin-1(6H)-yl)-N-(1-(N,N-dimethylsulfamoyl)piperidin-3-yl)acetamide]

total PRMT5 protein labeled [4]: ~ 40%
Compound: Cc1ccc(NC(=O)[C@H](C)n2ncc(Cl)cc2=O)cc1S(=O)(=O)NCCc1ccccn1 [Compound 27, (2S)-2-(4-chloro-6-oxo-pyridazin-1-yl)-N-[4-methyl-3-[2-(2-pyridyl)ethylsulfamoyl]phenyl]propanamide]
symmetric arginine dimethylation levels by WB (in words) [3]: reduction in symmetric arginine dimethylation levels; also recorded: reduces SDMA

pICln binding to compound-treated PRMT5 (in words) [5]: greatly reduced binding response
IC50 [1]: 600 nM
IC50 [2]: > 100000 nM
Compound: Cc1ccc(NC(=O)Cn2ncc(Cl)c(Cl)c2=O)cc1S(=O)(=O)NCCc1ccccn1 [Compound 6, 2-(4,5-Dichloro-6-oxopyridazin-1(6H)-yl)-N-(4-methyl-3-(N-(2-(pyridin-2-yl)ethyl)sulfamoyl)phenyl)acetamide]

IC50 [1]: > 100000 nM
Compound: CSC[C@H]1O[C@@H](n2cnc3c(N)ncnc32)[C@H](O)[C@@H]1O [MTA, 5′-S-Methyl-5′-thioadenosine]

disruption of PRMT5-RIOK1 complex, permeabilized cells (in words) [6]: inactive
Compound: Cc1ccc(N(C)C(=O)[C@H](C)n2ncc(Cl)cc2=O)cc1S(=O)(=O)NCCc1ccccn1 [Compound 29, (2S)-2-(4-chloro-6-oxo-pyridazin-1-yl)-N-methyl-N-[4-methyl-3-[2-(2-pyridyl)ethylsulfamoyl]phenyl]propanamide]

inhibition of PRMT5-PBM peptide binding (in words) [1]: failed to inhibit this binding
Compound: Nc1nc2cc(CC[C@H]3C[C@@H](n4ccc5c(N)ncnc54)[C@H](O)[C@@H]3O)ccc2cc1Br [JNJ-64619178]

inhibition of PRMT5-PBM peptide binding (in words) [1]: failed to inhibit this binding
Compound: O=C(NC[C@H](O)CN1CCc2ccccc2C1)c1cc(NC2COC2)ncn1 [EPZ015666]
